Assay results published in the supplement of paper PMC10307832.

Assays:
Assay in all cases: relative viability (nuclei count vs DMSO), 5 days (fraction); higher = more cells survive
201T = test system: 201T
In short: (§1)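 For relative viability, nuclei counts in treated wells were divided by those in vehicle wells. Lung cancer cell lines had been pin-tool dosed in 1536-well plates the day after seeding and cultured for 5 days, then fixed and stained in one step (final 0.05% Triton X-100, 1% formaldehyde, 1 ug/ml Hoechst) and imaged at 4×. Doses were one drug alone or a fixed anchor-drug dose plus five library-drug doses (not always all listed) in √10 steps, and values are duplicate-plate medians.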

A-427 = test system: A-427
In short: as §1

ABC-1 = test system: ABC-1
In short: as §1

BEN = test system: BEN
In short: as §1

CAL-12T = test system: CAL-12T
In short: as §1

H3255 = test system: H3255
In short: as §1

HCC-15 = test system: HCC-15
In short: as §1

LC-2-ad = test system: LC-2-ad
In short: as §1

LCLC-97TM1 = test system: LCLC-97TM1
In short: as §1

NCI-H1650 = test system: NCI-H1650
In short: as §1

NCI-H1651 = test system: NCI-H1651
In short: as §1

NCI-H1792 = test system: NCI-H1792
In short: as §1

NCI-H1915 = test system: NCI-H1915
In short: as §1

NCI-H1944 = test system: NCI-H1944
In short: as §1

NCI-H2023 = test system: NCI-H2023
In short: as §1

NCI-H2087 = test system: NCI-H2087
In short: as §1

NCI-H441 = test system: NCI-H441
In short: as §1

NCI-H460 = test system: NCI-H460
In short: as §1

NCI-H520 = test system: NCI-H520
In short: as §1

NCI-H596 = test system: NCI-H596
In short: as §1

NCI-H650 = test system: NCI-H650
In short: as §1

NCI-H661 = test system: NCI-H661
In short: as §1

NCI-H727 = test system: NCI-H727
In short: as §1

PC-3 [JPC-3] = test system: PC-3 [JPC-3]
In short: as §1

## Clc1ccc(Nc2nnc(Cc3ccncc3)c3ccccc23)cc1 [Vatalanib] + COc1cccc2cc(-c3nc([C@H]4CC[C@H](C(=O)O)CC4)n4ncnc(N)c34)[nH]c12 [OSI-027] (partner 0.5 µM)
201T; first compound 0.04 µM
  relative viability: 0.759
201T; first compound 0.1265 µM
  relative viability: 0.698
201T; first compound 0.4 µM
  relative viability: 0.889
201T; first compound 1.265 µM
  relative viability: 0.657
201T; first compound 4 µM
  relative viability: 0.666
A-427; first compound 0.04 µM
  relative viability: 0.504
A-427; first compound 0.1265 µM
  relative viability: 0.453
A-427; first compound 0.4 µM
  relative viability: 0.494
A-427; first compound 1.265 µM
  relative viability: 0.464
A-427; first compound 4 µM
  relative viability: 0.486
ABC-1; first compound 0.04 µM
  relative viability: 0.444
ABC-1; first compound 0.1265 µM
  relative viability: 0.512
ABC-1; first compound 1.265 µM
  relative viability: 0.381
ABC-1; first compound 4 µM
  relative viability: 0.486
BEN; first compound 0.04 µM
  relative viability: 0.297
BEN; first compound 0.1265 µM
  relative viability: 0.314
BEN; first compound 0.4 µM
  relative viability: 0.31
BEN; first compound 1.265 µM
  relative viability: 0.295
BEN; first compound 4 µM
  relative viability: 0.281
CAL-12T; first compound 0.04 µM
  relative viability: 0.574
CAL-12T; first compound 0.1265 µM
  relative viability: 0.523
CAL-12T; first compound 0.4 µM
  relative viability: 0.583
CAL-12T; first compound 1.265 µM
  relative viability: 0.556
CAL-12T; first compound 4 µM
  relative viability: 0.581
H3255; first compound 0.04 µM
  relative viability: 0.566
H3255; first compound 0.1265 µM
  relative viability: 0.529
H3255; first compound 0.4 µM
  relative viability: 0.51
H3255; first compound 1.265 µM
  relative viability: 0.584
H3255; first compound 4 µM
  relative viability: 0.504
HCC-15; first compound 0.04 µM
  relative viability: 0.714
HCC-15; first compound 0.1265 µM
  relative viability: 0.724
HCC-15; first compound 0.4 µM
  relative viability: 0.535
HCC-15; first compound 1.265 µM
  relative viability: 0.582
HCC-15; first compound 4 µM
  relative viability: 0.523
LC-2-ad; first compound 0.04 µM
  relative viability: 0.935
LC-2-ad; first compound 0.1265 µM
  relative viability: 0.865
LC-2-ad; first compound 1.265 µM
  relative viability: 0.785
LC-2-ad; first compound 4 µM
  relative viability: 0.826
LCLC-97TM1; first compound 0.04 µM
  relative viability: 0.45
LCLC-97TM1; first compound 0.1265 µM
  relative viability: 0.398
LCLC-97TM1; first compound 0.4 µM
  relative viability: 0.552
LCLC-97TM1; first compound 1.265 µM
  relative viability: 0.531
LCLC-97TM1; first compound 4 µM
  relative viability: 0.42
NCI-H1650; first compound 0.04 µM
  relative viability: 0.769
NCI-H1650; first compound 0.1265 µM
  relative viability: 0.454
NCI-H1650; first compound 0.4 µM
  relative viability: 0.438
NCI-H1650; first compound 1.265 µM
  relative viability: 0.633
NCI-H1650; first compound 4 µM
  relative viability: 0.514
NCI-H1651; first compound 0.04 µM
  relative viability: 0.751
NCI-H1651; first compound 0.1265 µM
  relative viability: 0.723
NCI-H1651; first compound 0.4 µM
  relative viability: 0.662
NCI-H1651; first compound 1.265 µM
  relative viability: 0.644
NCI-H1651; first compound 4 µM
  relative viability: 0.615
NCI-H1792; first compound 0.04 µM
  relative viability: 0.678
NCI-H1792; first compound 0.1265 µM
  relative viability: 0.68
NCI-H1792; first compound 0.4 µM
  relative viability: 0.704
NCI-H1792; first compound 1.265 µM
  relative viability: 0.707
NCI-H1792; first compound 4 µM
  relative viability: 0.631
NCI-H1915; first compound 0.04 µM
  relative viability: 0.673
NCI-H1915; first compound 0.1265 µM
  relative viability: 0.636
NCI-H1915; first compound 0.4 µM
  relative viability: 0.632
NCI-H1915; first compound 1.265 µM
  relative viability: 0.649
NCI-H1915; first compound 4 µM
  relative viability: 0.61
NCI-H1944; first compound 0.04 µM
  relative viability: 0.42
NCI-H1944; first compound 0.1265 µM
  relative viability: 0.421
NCI-H1944; first compound 0.4 µM
  relative viability: 0.413
NCI-H1944; first compound 1.265 µM
  relative viability: 0.411
NCI-H1944; first compound 4 µM
  relative viability: 0.336
NCI-H2023; first compound 0.04 µM
  relative viability: 0.376
NCI-H2023; first compound 0.1265 µM
  relative viability: 0.366
NCI-H2023; first compound 0.4 µM
  relative viability: 0.419
NCI-H2023; first compound 1.265 µM
  relative viability: 0.342
NCI-H2023; first compound 4 µM
  relative viability: 0.343
NCI-H2087; first compound 0.04 µM
  relative viability: 0.673
NCI-H2087; first compound 0.1265 µM
  relative viability: 0.468
NCI-H2087; first compound 0.4 µM
  relative viability: 0.647
NCI-H2087; first compound 1.265 µM
  relative viability: 0.548
NCI-H2087; first compound 4 µM
  relative viability: 0.564
NCI-H441; first compound 0.04 µM
  relative viability: 0.581
NCI-H441; first compound 0.1265 µM
  relative viability: 0.504
NCI-H441; first compound 0.4 µM
  relative viability: 0.597
NCI-H441; first compound 1.265 µM
  relative viability: 0.658
NCI-H441; first compound 4 µM
  relative viability: 0.713
NCI-H460; first compound 0.04 µM
  relative viability: 0.713
NCI-H460; first compound 0.1265 µM
  relative viability: 0.703
NCI-H460; first compound 0.4 µM
  relative viability: 0.655
NCI-H460; first compound 1.265 µM
  relative viability: 0.65
NCI-H460; first compound 4 µM
  relative viability: 0.624
NCI-H520; first compound 0.04 µM
  relative viability: 0.25
NCI-H520; first compound 0.1265 µM
  relative viability: 0.23
NCI-H520; first compound 0.4 µM
  relative viability: 0.244
NCI-H520; first compound 1.265 µM
  relative viability: 0.252
NCI-H520; first compound 4 µM
  relative viability: 0.224
NCI-H596; first compound 0.04 µM
  relative viability: 0.838
NCI-H596; first compound 0.1265 µM
  relative viability: 0.651
NCI-H596; first compound 0.4 µM
  relative viability: 0.777
NCI-H596; first compound 1.265 µM
  relative viability: 0.756
NCI-H596; first compound 4 µM
  relative viability: 0.5
NCI-H650; first compound 0.04 µM
  relative viability: 0.627
NCI-H650; first compound 0.1265 µM
  relative viability: 0.49
NCI-H650; first compound 1.265 µM
  relative viability: 0.491
NCI-H650; first compound 4 µM
  relative viability: 0.523
NCI-H661; first compound 0.04 µM
  relative viability: 0.737
NCI-H661; first compound 0.1265 µM
  relative viability: 0.699
NCI-H661; first compound 0.4 µM
  relative viability: 0.709
NCI-H661; first compound 1.265 µM
  relative viability: 0.717
NCI-H661; first compound 4 µM
  relative viability: 0.67
NCI-H727; first compound 0.04 µM
  relative viability: 0.562
NCI-H727; first compound 0.1265 µM
  relative viability: 0.545
NCI-H727; first compound 0.4 µM
  relative viability: 0.653
NCI-H727; first compound 1.265 µM
  relative viability: 0.562
NCI-H727; first compound 4 µM
  relative viability: 0.45
PC-3 [JPC-3]; first compound 0.04 µM
  relative viability: 0.752
PC-3 [JPC-3]; first compound 0.1265 µM
  relative viability: 0.698
PC-3 [JPC-3]; first compound 0.4 µM
  relative viability: 0.771
PC-3 [JPC-3]; first compound 1.265 µM
  relative viability: 0.733
PC-3 [JPC-3]; first compound 4 µM
  relative viability: 0.672
